{
  "source": "patent US20240123016A1",
  "about": "“WITHANOLIDE-ENRICHED COMPOSITIONS AND METHODS OF USE THEREOF” (priority 2021, published 2024)",
  "key": {"[1]": {"assay": "DPPH radical scavenging assay (antioxidant activity)", "type": "biochemical", "conditions": "1000 μg/ml, 30 minutes", "experimental": "Antioxidant activity of various Ashwagandha samples was measured using a 2,2-diphenyl-1-picrylhydrazyl (DPPH) radical scavenging assay. DPPH is a stable free radical that produces violet solution in ethanol and, upon reduction by antioxidant compounds, produces light yellow-to-colorless solutions. For comparative antioxidant activity analysis of […], relative to non- branded and branded Ashwagandha compositions, two different dilutions (100 μg/ml and 1000 μg/ml) of each sample were prepared in ethanol and 500 μl of each sample dilution was mixed (1:1) with 500 μl of 0.04 mg/ml DPPH (Sigma #D9132-1G) ethanolic solution. Gallic acid (a natural polyphenolic antioxidant) and sucrose were used as positive and negative controls, respectively. All samples and controls were thoroughly vortexed and incubated for 30 minutes at room temperature in the dark followed by absorbance (Abs) readings at 517 nm using a spectrophotometer. Percentage antioxidant activity was calculated using the formula: 100-(AbsSample-AbsBlank/AbsControl×100), where AbsSample=Sample Dilution+DPPH Solution; AbsBlank=Sample Dilution+DPPH solvent; and AbsControl=Sample Solvent+DPPH Solution."}, "HEK293 cells": {"tested_on": "HEK293 cells", "assay": "cells", "conditions": "Homo sapiens, HEK293, read-out: IC50 for H2O2 treatment (cell viability)", "description": "Cell viability was analyzed using the MTT assay described herein."}},
  "data": [
    {"molecule": "O=C(O)c1cc(O)c(O)c(O)c1", "note": "[Gallic acid]", "values": [
      {"measurement": "percent anti-oxidant activity (%AA)", "setting": "[1]", "result": "90.12±1.1", "unit": "%"}
    ]},
    {"molecule": "OO", "note": "[H2O2, hydrogen peroxide]", "values": [
      {"measurement": "IC50", "setting": "HEK293 cells", "result": 400, "unit": "µM"}
    ]}
  ]
}
